Data as given in ChEMBL document CHEMBL1201862, “PubChem BioAssay data set” (2004).
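Test compounds were applied to cells in 96-well plates for 48 hours at 5 doses. GI50: concentration for 50% inhibition of growth.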 Active and inactive are the calls of the source. Cut-off read from the data, not from the text of the source: active = GI50 up to about 1.1 µM and inactive = higher.

Key:
Assay in all cases: inhibition of tumour cell growth, NCI panel, 48 h
786-0 = test system: 786-0
A549 = test system: A549
ACHN = test system: ACHN
BT-549 = test system: BT-549
CAKI-1 = test system: CAKI-1
CCRF-CEM = test system: CCRF-CEM
COLO 205 = test system: COLO 205
DU-145 = test system: DU-145
EKVX = test system: EKVX
HCC 2998 = test system: HCC 2998
HCT-116 = test system: HCT-116
HCT-15 = test system: HCT-15
HL-60 = test system: HL-60
HOP-62 = test system: HOP-62
HOP-92 = test system: HOP-92
HT-29 = test system: HT-29
Hs-578T = test system: Hs-578T
IGROV-1 = test system: IGROV-1
KM12 = test system: KM12
LOX IMVI = test system: LOX IMVI
M14 = test system: M14
MCF7 = test system: MCF7
MDA-MB-231 = test system: MDA-MB-231
MDA-MB-435 = test system: MDA-MB-435
MDA-N = test system: MDA-N
MOLT-4 = test system: MOLT-4
NCI-H23 = test system: NCI-H23
NCI-H460 = test system: NCI-H460
NCI-H522 = test system: NCI-H522
NCI/ADR-RES = test system: NCI/ADR-RES
OVCAR-3 = test system: OVCAR-3
OVCAR-4 = test system: OVCAR-4
OVCAR-5 = test system: OVCAR-5
OVCAR-8 = test system: OVCAR-8
PC-3 = test system: PC-3
RPMI-8226 = test system: RPMI-8226
SF-268 = test system: SF-268
SF-295 = test system: SF-295
SF-539 = test system: SF-539
SK-MEL-28 = test system: SK-MEL-28
SK-MEL-2 = test system: SK-MEL-2
SK-MEL-5 = test system: SK-MEL-5
SN12C = test system: SN12C
SNB-19 = test system: SNB-19
SNB-75 = test system: SNB-75
SR = test system: SR
SW-620 = test system: SW-620
T47D = test system: T47D
TK-10 = test system: TK-10
U-251 = test system: U-251
UACC-257 = test system: UACC-257
UACC-62 = test system: UACC-62
UO-31 = test system: UO-31
A498 = test system: A498
K562 = test system: K562
Malme-3M = test system: Malme-3M
NCI-H226 = test system: NCI-H226
RXF 393 = test system: RXF 393
SK-OV-3 = test system: SK-OV-3

Measured: GI50

COC(=O)c1cc(NC2OCC(OC(C)=O)C(OC(C)=O)C2OC(C)=O)nc(SC)c1C(=O)OC (configuration not stated)
inactive: 786-0 > 100 µM | A549 > 100 µM | ACHN > 100 µM | BT-549 > 100 µM | CAKI-1 > 100 µM | CCRF-CEM > 100 µM | COLO 205 > 100 µM | DU-145 > 100 µM | EKVX > 100 µM | HCC 2998 > 100 µM | HCT-116 > 100 µM | HL-60 74 µM | HOP-62 > 100 µM | HOP-92 > 100 µM | HT-29 > 100 µM | Hs-578T > 100 µM | IGROV-1 > 100 µM | KM12 > 100 µM | LOX IMVI > 100 µM | M14 > 100 µM | MCF7 > 100 µM | MDA-MB-231 > 100 µM | MDA-MB-435 > 100 µM | MDA-N > 100 µM | MOLT-4 > 100 µM | NCI-H23 > 100 µM | NCI-H460 > 100 µM | NCI-H522 > 100 µM | NCI/ADR-RES > 100 µM | OVCAR-3 > 100 µM | OVCAR-4 > 100 µM | OVCAR-5 > 100 µM | OVCAR-8 > 100 µM | PC-3 > 100 µM | RPMI-8226 > 100 µM | SF-268 > 100 µM | SF-295 > 100 µM | SF-539 > 100 µM | SK-MEL-28 > 100 µM | SK-MEL-2 > 100 µM | SK-MEL-5 > 100 µM | SN12C > 100 µM | SNB-19 > 100 µM | SNB-75 49.9 µM | SR > 100 µM | SW-620 > 100 µM | T47D > 100 µM | TK-10 > 100 µM | U-251 > 100 µM | UACC-257 > 100 µM | UACC-62 > 100 µM | UO-31 > 100 µM
> 100 µM: HCT-15

Oc1ccccc1/C=N/Nc1nnc2c3ccccc3c3ccccc3c2n1
73.6 µM: HCT-15
inactive: 786-0 > 100 µM | A498 > 100 µM | A549 > 100 µM | ACHN > 100 µM | BT-549 > 100 µM | CAKI-1 > 100 µM | CCRF-CEM > 100 µM | COLO 205 > 100 µM | DU-145 > 100 µM | EKVX > 100 µM | HCT-116 > 100 µM | HL-60 > 100 µM | HOP-62 42.6 µM | HOP-92 > 100 µM | HT-29 > 100 µM | Hs-578T > 100 µM | IGROV-1 39.9 µM | K562 > 100 µM | KM12 71.4 µM | LOX IMVI 84.3 µM | M14 > 100 µM | MCF7 32.3 µM | MDA-MB-231 > 100 µM | MDA-MB-435 28.1 µM | MDA-N 29.9 µM | MOLT-4 > 100 µM | Malme-3M 59.6 µM | NCI-H226 > 100 µM | NCI-H23 > 100 µM | NCI-H460 41.8 µM | NCI-H522 20 µM | NCI/ADR-RES 47.9 µM | OVCAR-3 14.6 µM | OVCAR-4 > 100 µM | OVCAR-5 > 100 µM | OVCAR-8 > 100 µM | PC-3 80.5 µM | RPMI-8226 > 100 µM | RXF 393 25.1 µM | SF-268 > 100 µM | SF-295 32.8 µM | SF-539 > 100 µM | SK-MEL-28 > 100 µM | SK-MEL-2 55.5 µM | SK-MEL-5 48.3 µM | SK-OV-3 58.3 µM | SN12C > 100 µM | SNB-19 > 100 µM | SNB-75 20.8 µM | SR 52.6 µM | SW-620 82.4 µM | T47D 65 µM | TK-10 45.4 µM | U-251 > 100 µM | UACC-257 25.2 µM | UACC-62 61.4 µM | UO-31 > 100 µM

COc1nc2cccc(C(O)c3ccccc3)c2nc1-c1ccccc1 (configuration not stated)
4.43 µM: HCT-15
inactive: A498 2.81 µM | A549 4.88 µM | ACHN 5.83 µM | BT-549 13.9 µM | CAKI-1 5.05 µM | CCRF-CEM 3.02 µM | COLO 205 4.68 µM | DU-145 5.93 µM | EKVX 4.08 µM | HCT-116 3.97 µM | HL-60 3.18 µM | HOP-62 3.78 µM | HOP-92 6.92 µM | HT-29 5.18 µM | Hs-578T 2.28 µM | IGROV-1 5.09 µM | K562 3.81 µM | KM12 6.04 µM | LOX IMVI 6.24 µM | M14 4.39 µM | MCF7 4.47 µM | MDA-MB-231 8.41 µM | MDA-MB-435 1.78 µM | MDA-N 1.55 µM | MOLT-4 5.11 µM | Malme-3M 17 µM | NCI-H226 3.8 µM | NCI-H23 3.27 µM | NCI-H460 4.14 µM | NCI-H522 8.95 µM | NCI/ADR-RES 3.85 µM | OVCAR-3 3.91 µM | OVCAR-4 10.1 µM | OVCAR-5 11 µM | OVCAR-8 8.22 µM | PC-3 4.46 µM | RPMI-8226 2.94 µM | RXF 393 3.64 µM | SF-268 9.06 µM | SF-295 2.08 µM | SF-539 2.88 µM | SK-MEL-28 13.4 µM | SK-MEL-2 9.95 µM | SK-MEL-5 3.56 µM | SN12C 10.9 µM | SNB-19 4.36 µM | SNB-75 9.12 µM | SR 1.75 µM | SW-620 3.82 µM | T47D 8.57 µM | TK-10 22.3 µM | U-251 4.19 µM | UACC-257 5.89 µM | UACC-62 5.92 µM | UO-31 8.39 µM
